Format in all cases: cell-based
Test [1] has as its system 15-PGDH luciferase fusion construct in LS174T reporter cell line. Description: 15-PGDH-luciferase fusion gene reporter induction, LS174T cells. The conditions noted are these: Homo sapiens.
The subject of test [2] is 15-PGDH luciferase fusion construct in Vaco503 reporter cell line. Nature of the test: 15-PGDH-luciferase fusion gene reporter induction, V503 cells.
The test system of test [3] is 15-PGDH luciferase fusion construct in V9m reporter cell line. Description: 15-PGDH-luciferase fusion gene reporter induction, V9m cells.
Setting [4] is: read-out: Ls174T-SC1 reporter activity, % ([…]), […], Table 18, read-out: Ls174T-SC1 reporter activity, % (2.5 μM).
[5] abbreviates: read-out: Ls174T-SC1 reporter activity, % ([…]), […], Table 18, read-out: Ls174T-SC1 reporter activity, % (7.5 μM).
[6] abbreviates: read-out: V503-3H9-7 reporter activity, % ([…]), […], Table 18, read-out: V503-3H9-7 reporter activity, % (2.5 μM).
The mark [7] stands for this setting: read-out: V503-3H9-7 reporter activity, % ([…]), […], Table 18, read-out: V503-3H9-7 reporter activity, % (7.5 μM).
Setting [8] is: read-out: V9M-SC3 Reporter activity ([…]) (%), […], Table 18, read-out: V9M-SC3 Reporter activity (2.5 μM) (%).
The mark [9] stands for this setting: read-out: Ls174T-SC1 reporter activity, % ([…]), LS174T reporter cells, […] compound, % induction of luciferase activity over basal level, read-out: Ls174T-SC1 reporter activity, % (2.5 μM).
The mark [10] stands for this setting: read-out: Ls174T-SC1 reporter activity, % ([…]), LS174T reporter cells, […] compound, % induction of luciferase activity over basal level, read-out: Ls174T-SC1 reporter activity, % (7.5 μM).
Setting [11] is: read-out: V503-3H9-7 reporter activity, % ([…]), V503 reporter cells, […] compound, % induction of luciferase activity over basal level, read-out: V503-3H9-7 reporter activity, % (2.5 μM).
The mark [12] stands for this setting: read-out: V503-3H9-7 reporter activity, % ([…]), V503 reporter cells, […] compound, % induction of luciferase activity over basal level, read-out: V503-3H9-7 reporter activity, % (7.5 μM).
Setting [13] is: read-out: V9M-SC3 Reporter activity ([…]) (%), V9m reporter cells, […] compound, % induction of luciferase activity over basal level, read-out: V9M-SC3 Reporter activity (2.5 μM) (%).
Setting [14] is: read-out: V9M-SC3 Reporter activity ([…]), %, V9m reporter cells, […] compound, % induction of luciferase activity over basal level, read-out: V9M-SC3 Reporter activity (7.5 μM), %.

Read-outs that look alike come from different tables or passages of the source.

Consider `CCc1ccc(N(CC(=O)Nc2cccnc2)S(=O)(=O)c2ccccc2)cc1` [461439−84−9], for which the activation at […] was 4.83% in test [1] (setting [4]); -35% in test [1] (setting [5]); 1.57% in test [2] (setting [6]); 5.41% in test [2] (setting [7]); -30.3% in test [3] (setting [8]).

For `COc1ccc(OC)c(N(CC(=O)Nc2cccnc2)S(=O)(=O)c2ccc(C)cc2)c1` [505072−23−1], the activation at […] in test [1] (setting [4]) is 101%; in test [1] (setting [5]) it was 109%; in test [2] (setting [6]) it was 242%; in test [2] (setting [7]) it was 239%; in test [3] (setting [8]), 94.7%.

For the compound `COc1ccc(OC)c(N(CC(=O)Nc2cccnc2)S(C)(=O)=O)c1` [527699−66−7], the activation at […] in test [1] (setting [4]) is 7.31%; in test [1] (setting [5]), -29.6%; in test [2] (setting [6]) it was 38.8%; in test [2] (setting [7]) it was 70.9%; in test [3] (setting [8]) it was -31%.

Consider `CCc1ccccc1N(CC(=O)Nc1cccnc1)S(=O)(=O)c1ccccc1` [528580−69−0], for which the activation at […] was 11.5% in test [1] (setting [4]); -4.81% in test [1] (setting [5]); 66% in test [2] (setting [6]); 110% in test [2] (setting [7]); 4.71% in test [3] (setting [8]).

On to `COc1ccc(OC)c(N(CC(=O)Nc2ccccc2C(N)=O)S(=O)(=O)c2ccccc2)c1` [530107-57-4], for which the activation at […] in test [1] (setting [4]) worked out at 5.45%; in test [1] (setting [5]) it was 8.27%; in test [2] (setting [6]), 52.6%; in test [2] (setting [7]) it was 84.4%; in test [3] (setting [8]) it was 59.5%.

On to `COc1ccc(OC)c(N(CC(=O)Nc2cccnc2)S(=O)(=O)c2ccc(OC)c(OC)c2)c1` [680599−58−0], for which the activation at […] in test [1] (setting [4]) was 11.5%; in test [1] (setting [5]), -13.8%; in test [2] (setting [6]), 16.7%; in test [2] (setting [7]) it was 28.9%; in test [3] (setting [8]), -5.29%.

Regarding `O=C(CN(c1ccc2c(c1)OCCO2)S(=O)(=O)c1ccccc1)Nc1cccnc1` [701217-00-7], the activation at […] in test [1] (setting [4]) was -6.89%; in test [1] (setting [5]), -0.54%; in test [2] (setting [6]), 20.1%; in test [2] (setting [7]), 33.4%; in test [3] (setting [8]), -2.05%.

Turning to `O=C(CN(c1cc(Cl)ccc1Cl)S(=O)(=O)c1ccccc1)Nc1cccnc1` [833428−03−8], the activation at […] in test [1] (setting [4]) was 25.1%; in test [1] (setting [5]) it was 47.4%; in test [2] (setting [6]) it was 96.4%; in test [2] (setting [7]), 150%; in test [3] (setting [8]) it was -4.1%.

`CS(=O)(=O)c1sc2nc(-c3cccs3)cc(-c3ccccc3)c2c1N` [SW033290, 2-(methylsulfonyl)-4-phenyl-6-(thiophen-2-yl)thieno[2,3-b]pyridin-3-amine]: the activation at […] in test [1] (read-out: LS174T reporter activity ([…]), […], % increased luciferase activity over basal level, read-out: LS174T reporter activity (2.5 uM)) was -0.24%; in test [1] (read-out: LS174T reporter activity ([…]), […], % increased luciferase activity over basal level, read-out: LS174T reporter activity (7.5 uM)), -6.58%; in test [2] (read-out: V503 reporter activity ([…]), […], % increased luciferase activity over basal level, read-out: V503 reporter activity (2.5 uM)), 30.9%; in test [2] (read-out: V503 reporter activity ([…]), […], % increased luciferase activity over basal level, read-out: V503 reporter activity (7.5 uM)), 17.7%; in test [3] (read-out: V9M reporter activity ([…]), […], % increased luciferase activity over basal level, 100 = doubling, read-out: V9M reporter activity (2.5 uM)) it was -34.3%; in test [3] (read-out: V9M reporter activity ([…]), […], % increased luciferase activity over basal level, 100 = doubling, read-out: V9M reporter activity (7.5 uM)) it was -25.4%.

Take `COc1ccc(OC)c(N(CC(=O)O)S(=O)(=O)c2ccccc2)c1` [SW122063]: the activation at […] is 22.6% in test [1] (setting [9]); 19.9% in test [1] (setting [10]); 42.5% in test [2] (setting [11]); 44.1% in test [2] (setting [12]); 1.67% in test [3] (setting [13]); 4.8% in test [3] (setting [14]).

Take `COc1ccc(OC)c(N(CC(=O)N2CCCCC2)S(=O)(=O)c2ccccc2)c1` [SW131633]: the activation at […] in test [1] (setting [9]) was 8.42%; in test [1] (setting [10]), 150%; in test [2] (setting [11]) it was 104%; in test [2] (setting [12]) it was -40.6%; in test [3] (setting [13]), 77.2%; in test [3] (setting [14]), 141%.

As for `COc1ccc(OC)c(N(CC(N)=O)S(=O)(=O)c2ccccc2)c1` [SW131635], the activation at […] in test [1] (setting [9]) is 111%; in test [1] (setting [10]), 14.1%; in test [2] (setting [11]), -37.7%; in test [2] (setting [12]), 14.4%; in test [3] (setting [13]) it was 11.4%; in test [3] (setting [14]), 15.1%.

Turning to `COc1ccc(OC)c(N(CC(=O)Nc2cccnc2)S(=O)(=O)c2ccc(C)cc2)c1` [SW202939], the activation at […] in test [1] (setting [9]) came to 75.5%; in test [1] (setting [10]), 166%; in test [2] (setting [11]), 26.6%; in test [2] (setting [12]), 27.3%; in test [3] (setting [13]) it was 75.3%; in test [3] (setting [14]), 128%.

Consider `COc1ccc(OC)c(N(CC(=O)Nc2ccccn2)S(=O)(=O)c2ccccc2)c1` [SW202941], for which the activation at […] in test [1] (setting [9]) is -23.8%; in test [1] (setting [10]), -43.2%; in test [2] (setting [11]), 75.9%; in test [2] (setting [12]) it was 83.5%; in test [3] (setting [13]), -10.9%; in test [3] (setting [14]), 2.57%.

For `COc1ccc(OC)c(N(CC(=O)Nc2cccnc2)S(=O)(=O)c2ccccc2C)c1` [SW202943], the activation at […] in test [1] (setting [9]) worked out at 33.1%; in test [1] (setting [10]), 55.7%; in test [2] (setting [11]) it was 72.3%; in test [2] (setting [12]) it was 147%; in test [3] (setting [13]), 7.12%; in test [3] (setting [14]), 17.8%.

With `COc1ccc(OC)c(N(CC(=O)Nc2cccnc2)S(=O)(=O)c2ccccc2C(F)(F)F)c1` [SW202944], the activation at […] was 32.5% in test [1] (setting [9]); 15.8% in test [1] (setting [10]); 131% in test [2] (setting [11]); 94.6% in test [2] (setting [12]); -0.95% in test [3] (setting [13]); -3.73% in test [3] (setting [14]).

As for `COc1ccc(OC)c(N(CC(=O)Nc2cccnc2)S(=O)(=O)c2ccccc2C#N)c1` [SW202945], the activation at […] in test [1] (setting [9]) was 45.7%; in test [1] (setting [10]), 135%; in test [2] (setting [11]) it was 34%; in test [2] (setting [12]) it was 127%; in test [3] (setting [13]), 28.5%; in test [3] (setting [14]), 90%.

With `COc1ccc(OC)c(N(CC(=O)Nc2ccnc(Cl)c2)S(=O)(=O)c2ccccc2)c1` [SW202946], the activation at […] in test [1] (setting [9]) was 105%; in test [1] (setting [10]), -23.6%; in test [2] (setting [11]) it was 137%; in test [2] (setting [12]), 34.3%; in test [3] (setting [13]), 64.6%; in test [3] (setting [14]), -41.5%.

Turning to `COc1ccc(OC)c(N(CC(=O)Nc2cccnc2)S(=O)(=O)c2ccccc2F)c1` [SW202947], the activation at […] in test [1] (setting [9]) was determined as 52%; in test [1] (setting [10]), 21.2%; in test [2] (setting [11]), 143%; in test [2] (setting [12]) it was 97.8%; in test [3] (setting [13]), 21.9%; in test [3] (setting [14]), 2.57%.

In the case of `COc1ccc(OC)c(NCC(=O)Nc2cccnc2)c1` [SW202948], the activation at […] in test [1] (setting [9]) is -6.73%; in test [1] (setting [10]), 8.36%; in test [2] (setting [11]), 16.4%; in test [2] (setting [12]), 7.54%; in test [3] (setting [13]) it was -22%; in test [3] (setting [14]) it was -23.1%.

As for `COc1ccc(OC)c(N(CC(=O)Nc2cccnc2)S(=O)(=O)c2ccccc2Cl)c1` [SW202949], the activation at […] is -1.58% in test [1] (setting [9]); -5.87% in test [1] (setting [10]); -12.5% in test [2] (setting [11]); 5.32% in test [2] (setting [12]); 5.76% in test [3] (setting [13]); -5.69% in test [3] (setting [14]).

For `COc1ccc(OC)c(N(CC(=O)Nc2cccnc2)S(=O)(=O)c2ccc(C(C)=O)cc2)c1` [SW202950], the activation at […] was -2.7% in test [1] (setting [9]); 10.7% in test [1] (setting [10]); -6.56% in test [2] (setting [11]); 12.9% in test [2] (setting [12]); 12.6% in test [3] (setting [13]); 23.9% in test [3] (setting [14]).

As to `COc1ccc(OC)c(N(CC(=O)Nc2cccnc2)C(C)=O)c1` [SW202952], the activation at […] in test [1] (setting [9]) was -10.3%; in test [1] (setting [10]), 10.6%; in test [2] (setting [11]) it was 26.2%; in test [2] (setting [12]) it was 7.16%; in test [3] (setting [13]) it was -20.7%; in test [3] (setting [14]), -19.5%.

Values taken from US9790233B2, “Compositions and methods of modulating 15-PGDH activity” (CASE WESTERN RESERVE UNIVERSITY, priority 2012, dated 2017).
